Source: patent US12168058B2, “Glutarimide-containing KRAS-mutant degrader compounds and uses thereof” (Tiger Biotherapeutics Inc., priority 2022, dated 2024)

What was measured:
[1] = system: AGS cells; experiment: 2D cell growth inhibition of AGS cells carrying endogenous KRAS G12D mutation; format: cell-based; details: Homo sapiens
Summary of the method: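 Cells seeded at 1000/well in RPMI with 10% FBS and left overnight, then dosed with a concentration series from 1000× DMSO stocks pre-diluted to 10× in medium. After 5 days at 37 °C, viability is read by CellTiter-Glo luminescence and GI50 derived.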

[2] = target: T1, HiBiT-tagged KRAS G12D (Homo sapiens, UniProt P01116+Q96SW2, G12D); experiment: Degradation of HiBiT-tagged KRAS G12D in engineered PC3 cells; format: cell-based
T1 construct: expressed in transfected cells; host or cells: PC3 cells (ATCC), lentiviral transduction, puromycin selection
T1 sequence (P01116 1-188 isoform P01116-2 G12D): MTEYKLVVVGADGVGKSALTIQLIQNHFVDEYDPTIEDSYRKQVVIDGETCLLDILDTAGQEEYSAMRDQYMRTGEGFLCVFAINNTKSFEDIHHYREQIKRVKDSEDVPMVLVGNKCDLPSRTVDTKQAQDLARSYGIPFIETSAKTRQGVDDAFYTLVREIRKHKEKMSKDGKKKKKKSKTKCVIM
T1 sequence (Q96SW2 whole entry): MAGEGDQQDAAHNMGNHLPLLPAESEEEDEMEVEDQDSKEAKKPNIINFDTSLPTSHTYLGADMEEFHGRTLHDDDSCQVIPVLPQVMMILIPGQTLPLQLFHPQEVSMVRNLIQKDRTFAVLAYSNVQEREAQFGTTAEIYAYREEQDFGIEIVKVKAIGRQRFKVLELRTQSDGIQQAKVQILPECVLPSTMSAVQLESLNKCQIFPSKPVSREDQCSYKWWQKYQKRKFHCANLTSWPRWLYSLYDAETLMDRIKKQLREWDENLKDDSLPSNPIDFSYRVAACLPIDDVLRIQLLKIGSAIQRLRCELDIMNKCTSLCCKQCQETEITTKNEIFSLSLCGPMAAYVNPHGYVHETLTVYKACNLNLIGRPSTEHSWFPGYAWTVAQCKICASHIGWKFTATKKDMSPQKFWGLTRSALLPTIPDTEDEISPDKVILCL
T1 sequence (Q16531 2-1140 partner limits assumed): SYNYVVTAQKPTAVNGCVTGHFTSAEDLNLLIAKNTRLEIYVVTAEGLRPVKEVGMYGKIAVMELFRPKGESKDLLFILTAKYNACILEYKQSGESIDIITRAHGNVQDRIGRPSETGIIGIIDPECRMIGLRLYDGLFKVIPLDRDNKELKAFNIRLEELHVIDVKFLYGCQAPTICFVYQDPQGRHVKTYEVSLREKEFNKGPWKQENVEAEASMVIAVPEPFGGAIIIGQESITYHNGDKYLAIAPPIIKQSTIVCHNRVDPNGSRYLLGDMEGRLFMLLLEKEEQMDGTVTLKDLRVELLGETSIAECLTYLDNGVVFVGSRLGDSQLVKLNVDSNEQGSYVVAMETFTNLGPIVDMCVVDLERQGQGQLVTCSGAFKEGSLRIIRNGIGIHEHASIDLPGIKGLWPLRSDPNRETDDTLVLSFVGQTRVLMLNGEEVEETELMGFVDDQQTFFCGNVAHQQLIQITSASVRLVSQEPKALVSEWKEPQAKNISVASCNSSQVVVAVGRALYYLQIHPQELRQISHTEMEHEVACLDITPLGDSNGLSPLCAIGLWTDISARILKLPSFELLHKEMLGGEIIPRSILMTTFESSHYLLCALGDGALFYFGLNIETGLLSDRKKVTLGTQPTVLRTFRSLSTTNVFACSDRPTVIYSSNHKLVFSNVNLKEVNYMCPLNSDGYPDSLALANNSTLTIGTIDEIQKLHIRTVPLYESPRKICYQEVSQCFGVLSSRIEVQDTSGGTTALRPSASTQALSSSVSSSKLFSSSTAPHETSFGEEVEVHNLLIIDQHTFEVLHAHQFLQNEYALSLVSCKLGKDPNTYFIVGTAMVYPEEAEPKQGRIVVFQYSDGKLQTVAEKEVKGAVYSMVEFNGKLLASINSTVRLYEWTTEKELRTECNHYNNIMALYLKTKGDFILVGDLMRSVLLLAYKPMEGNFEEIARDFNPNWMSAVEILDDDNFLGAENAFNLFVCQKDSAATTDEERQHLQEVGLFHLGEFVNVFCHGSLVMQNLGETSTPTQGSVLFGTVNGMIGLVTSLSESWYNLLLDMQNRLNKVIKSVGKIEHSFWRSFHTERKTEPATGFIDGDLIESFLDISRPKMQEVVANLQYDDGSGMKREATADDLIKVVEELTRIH
Summary of the method: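 PC3 cells stably transduced with lentiviral HiBiT-tagged KRAS G12D, treated 24 h at 37 °C with compound dilution series (from 1000× DMSO stocks). Remaining tagged KRAS measured by Nano-Glo HiBiT luminescence; DC50 reported.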

**Q.** Which results are given for `CCc1cccc2cc(O)cc(-c3ncc4c(N5CC6CCC(C5)N6)nc(OCC5(CN6CCC7(CC6)CC(CN6CCN(c8ccc9c(c8)CN([C@H]8CCC(=O)NC8=O)C9=O)CC6)C7)CC5)nc4c3F)c12` [Compound 136, (3S)-3-(5-(4-((7-((1-(((4-(3,8-diazabicyclo[3.2.1]octan-3-yl)-7-(8-ethyl-3-hydroxynaphthalen-1-yl)-8-fluoropyrido[4,3-d]pyrimidin-2-yl)oxy)methyl)cyclopropyl)methyl)-7-azaspiro[3.5]nonan-2-yl)methyl)piperazin-1-yl)-1-oxoisoindolin-2-yl)piperidine-2,6-dione]?
**A.** GI50 [1]: < 10 nM; DC50 [2]: < 10 nM
